Source: publication PMC6085608, “Glutathione S-transferases play a role in the detoxification of flumethrin and chlorpyrifos in Haemaphysalis longicornis” (Parasites & Vectors, 2018)

How the values were obtained:
recombinant HlGST2 = molecular target: T1, recombinant HlGST2 (Haemaphysalis longicornis, UniProt A0A2Z6FA39); assay: CDNB conjugation kinetics with […] acaricide; format: biochemical; conditions: inhibitor, noncompetitive, 5 mM glutathione, CDNB 0.125-2 mM, pH 7.5, 25 °C
T1 construct: gene GST

recombinant HlGST = molecular target: T2, recombinant HlGST (Haemaphysalis longicornis, UniProt Q6JVN0); assay: CDNB conjugation kinetics with […] acaricide; format: biochemical; conditions: 5 mM glutathione, CDNB 0.125-2 mM, pH 7.5, 25 °C
T2 construct: gene GST
T2 sequence (Q6JVN0 1-223): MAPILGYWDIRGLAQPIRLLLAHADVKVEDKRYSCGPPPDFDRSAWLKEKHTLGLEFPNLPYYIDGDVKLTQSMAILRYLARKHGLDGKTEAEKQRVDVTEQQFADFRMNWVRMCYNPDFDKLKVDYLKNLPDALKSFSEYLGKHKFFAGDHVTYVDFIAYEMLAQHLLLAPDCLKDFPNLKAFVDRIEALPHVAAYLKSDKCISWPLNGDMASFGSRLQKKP

T1 sequence (A0A2Z6FA39 1-230): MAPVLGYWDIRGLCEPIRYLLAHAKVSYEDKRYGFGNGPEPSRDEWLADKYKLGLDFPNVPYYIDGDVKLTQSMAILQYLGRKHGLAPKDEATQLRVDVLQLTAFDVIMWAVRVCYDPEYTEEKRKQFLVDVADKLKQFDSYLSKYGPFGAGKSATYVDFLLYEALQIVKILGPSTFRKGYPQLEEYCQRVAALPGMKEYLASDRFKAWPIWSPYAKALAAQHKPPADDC

| SMILES | CDNB conjugation kinetics with 0.1 mM acaricide (recombinant HlGST2) | CDNB conjugation kinetics with 0.1 mM acaricide (recombinant HlGST; apparent activator (lowers Km for CDNB)) | CDNB conjugation kinetics with 0.1 mM acaricide (recombinant HlGST; inhibitor, uncompetitive) |
| --- | --- | --- | --- |
| CCOP(=S)(OCC)Oc1nc(Cl)c(Cl)cc1Cl [chlorpyrifos] | chlorpyrifos and cypermethrin showed noncompetitive inhibition of recombinant HlGST2 | – | – |
| CCOP(=S)(OCC)Oc1ccc2c(C)c(Cl)c(=O)oc2c1 [coumaphos] | – | Coumaphos significantly decreased the Km of recombinant HlGST, indicating the apparent activation | – |
| CC1(C)C(C=C(Cl)Cl)C1C(=O)OC(C#N)c1cccc(Oc2ccccc2)c1 (centres unmarked) [cypermethrin] | chlorpyrifos and cypermethrin showed noncompetitive inhibition of recombinant HlGST2 | – | flumethrin and cypermethrin showed uncompetitive inhibition of recombinant HlGST |
| CC1(C)C(C=C(Cl)c2ccc(Cl)cc2)C1C(=O)OC(C#N)c1ccc(F)c(Oc2ccccc2)c1 (centres unmarked) [flumethrin] | – | – | flumethrin and cypermethrin showed uncompetitive inhibition of recombinant HlGST |
